Measured values from patent US4900725A, “Steroids including a spiro ring in position 17, the process for their preparation and their use” (Roussel Uclaf, priority 1986, dated 1990).

Legend:
[1] = biological target: T1, Progestogene receptor of rabbit uterus (Oryctolagus cuniculus, UniProt P06186); experiment: Progestogene receptor of rabbit uterus, relative bonding affinity (RBA); type: binding; conditions: for Relative bonding affinity (RBA), Progestogen, 2 H: incubation 2 H at 0° C.; for Relative bonding affinity (RBA), Progestogen, 2 H / Relative bonding affinity (RBA), Progestogen, 24 H: versus cold reference hormone, tritiated R; for Relative bonding affinity (RBA), Progestogen, 24 H: incubation 24 H at 0° C.
T1 construct: the uterus is removed, weighed and homogenized at 0° C; from tissue; host or cells: uterus of estradiol-treated impuberal rabbits, 105,000 g supernatant (cytosol)
T1 sequence (P06186 1-930): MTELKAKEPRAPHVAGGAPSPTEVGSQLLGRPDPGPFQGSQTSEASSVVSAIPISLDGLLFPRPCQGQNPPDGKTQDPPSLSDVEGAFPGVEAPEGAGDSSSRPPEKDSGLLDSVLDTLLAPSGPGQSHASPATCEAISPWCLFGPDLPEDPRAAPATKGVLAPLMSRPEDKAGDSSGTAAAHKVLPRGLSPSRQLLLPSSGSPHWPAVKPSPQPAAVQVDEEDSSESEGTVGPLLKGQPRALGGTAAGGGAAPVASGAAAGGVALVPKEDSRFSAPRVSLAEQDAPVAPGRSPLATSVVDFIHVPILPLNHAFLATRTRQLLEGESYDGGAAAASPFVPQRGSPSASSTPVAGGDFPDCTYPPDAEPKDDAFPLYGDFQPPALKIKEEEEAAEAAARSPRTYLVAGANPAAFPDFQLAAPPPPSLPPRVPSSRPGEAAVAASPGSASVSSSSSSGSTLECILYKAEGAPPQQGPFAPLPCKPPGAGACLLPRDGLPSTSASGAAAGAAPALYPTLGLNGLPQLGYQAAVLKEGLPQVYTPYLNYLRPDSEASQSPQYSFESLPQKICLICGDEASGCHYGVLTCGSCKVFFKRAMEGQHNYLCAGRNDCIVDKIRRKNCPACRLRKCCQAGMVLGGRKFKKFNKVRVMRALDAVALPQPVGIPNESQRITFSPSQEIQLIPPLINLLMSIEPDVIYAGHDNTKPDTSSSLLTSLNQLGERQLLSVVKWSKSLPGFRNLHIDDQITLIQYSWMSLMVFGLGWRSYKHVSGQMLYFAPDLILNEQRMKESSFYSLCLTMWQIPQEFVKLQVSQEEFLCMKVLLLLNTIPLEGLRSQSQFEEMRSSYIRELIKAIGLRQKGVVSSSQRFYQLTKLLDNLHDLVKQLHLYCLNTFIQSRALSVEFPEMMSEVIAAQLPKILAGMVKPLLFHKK
Description: Progestogene receptor of rabbit uterus
Impuberal rabbits weighing about 1 kg receive a cutaneous application of […] of estradiol. 5 days after this treatment, the animals are killed, the uterus is removed, weighed and homogenized at 0° C., using a Potter teflon-glass, in a buffered solution TS (tirs 10 mM, saccharose 0.25 M, HCl pH 7.4) (1 g of tissue for 50 ml of TS). The homogenate is then ultra-centrifuged (105,000 g×90 min.) at 0° C.
Aliquots of the supernatant so obtained are incubated at 0° C. for a time t, with a constant concentration (T) of tritiated product R (17,21-dimethyl-19-nor-4,9-pregnadiene-3,20-dione) in the presence of increasing concentrations (0-2500.10^-9 M either of R cold, or of cold progesterone, or of the cold product under test. The concentration (B) of bonded triated (R) is then measured in each incubate by the technique of adsorption on carbon dextran.
(§1) Calculation of the relative bonding affinity
(§2) The calculation of the relative bonding affinity (RBA) is the same for all the receptors.
(§3) The two following curves are drawn: the percentage of bonded tritiated hormone B/T as a function of the concentration of the cold reference hormone, and B/T as a function of the logarithm of the concentration of the cold product under test. The straight line of the equation [formula] is determined. B/T max=percentage of tritiated hormone bonded for an incubation of this tritiated hormone at the concentration (T). B/T min=percentage of tritiated hormone bonded for an incubation of this tritiated hormone at the concentration (T) in the presence of a great excess of cold hormone (2,500.10^-9 M).
(§4) The intersections of the straight line I50 with the curves enables the concentrations of the cold reference hormone (CH) and of the cold product under test (CX) to be evaluated which inhibit by 50% the bonding of the tritiated hormone on the receptor.
(§5) The relative bonding affinity (RBA) of the product under test is determined by the equation: [formula]

[2] = system: thymocytes of suprarenalectomized rats; experiment: Antiglucocorticoid activity: inhibition of the effect of dexamethasone on tritiated uridine incorporation in thymocytes; type: cell-based; conditions: Rattus norvegicus, Thymocyte, 5.10^-8 M dexamethasone, 37° C., 30 hours; for inhibition at 1 µM: product at 10^-6 M; for inhibition at 0.1 µM: product at 10^-7 M; for inhibition at 0.01 µM: product at 10^-8 M
Description: II. Antiglucocorticoid activity
The technique used derives from the method described by Dausse et Col. in "Molecular Pharmacology", 13, 948-953, (1977) ("the relationship between glucocorticoid structure and effects upon Thymocytes") for the thymocytes of mice.
The thymocytes of suprarenalectomized rats are incubated at 37° C. for 30 hours in a nutritive medium containing 5.10^-8 M of dexamethasone in the presence or not of a product being studied, at different concentrations. Tritiated uridine is added, and the incubation is continued for one hour. The incubates are cooled, and treated with a 5% solution of trichloroacetic acid, then filtered on Whatman GF/A paper, and washed three times with a 5% trichloroacetic acid solution. The radio-activity retained by the filter is determined.
The products of examples 1 to 4 oppose this effect.

[3] = biological target: T2, Glucocorticoid receptor of the rat thymus (Rattus norvegicus, UniProt P06536); experiment: Glucocorticoid receptor of the rat thymus, relative bonding affinity (RBA); type: binding, rat (Sprague-Dawley); conditions: for Relative bonding affinity (RBA), Glucocorticoid, 4 H: incubation 4 H at 0° C.; for Relative bonding affinity (RBA), Glucocorticoid, 4 H / Relative bonding affinity (RBA), Glucocorticoid, 24 H: versus cold dexamethasone, tritiated dexamethasone; for Relative bonding affinity (RBA), Glucocorticoid, 24 H: incubation 24 H at 0° C.
T2 construct: the thymus is removed and homogenized at 0° C. in a buffer; from tissue; host or cells: thymus of adrenalectomized male Sprague-Dawley rats, 105,000 g supernatant (cytosol)
T2 sequence (P06536 1-795): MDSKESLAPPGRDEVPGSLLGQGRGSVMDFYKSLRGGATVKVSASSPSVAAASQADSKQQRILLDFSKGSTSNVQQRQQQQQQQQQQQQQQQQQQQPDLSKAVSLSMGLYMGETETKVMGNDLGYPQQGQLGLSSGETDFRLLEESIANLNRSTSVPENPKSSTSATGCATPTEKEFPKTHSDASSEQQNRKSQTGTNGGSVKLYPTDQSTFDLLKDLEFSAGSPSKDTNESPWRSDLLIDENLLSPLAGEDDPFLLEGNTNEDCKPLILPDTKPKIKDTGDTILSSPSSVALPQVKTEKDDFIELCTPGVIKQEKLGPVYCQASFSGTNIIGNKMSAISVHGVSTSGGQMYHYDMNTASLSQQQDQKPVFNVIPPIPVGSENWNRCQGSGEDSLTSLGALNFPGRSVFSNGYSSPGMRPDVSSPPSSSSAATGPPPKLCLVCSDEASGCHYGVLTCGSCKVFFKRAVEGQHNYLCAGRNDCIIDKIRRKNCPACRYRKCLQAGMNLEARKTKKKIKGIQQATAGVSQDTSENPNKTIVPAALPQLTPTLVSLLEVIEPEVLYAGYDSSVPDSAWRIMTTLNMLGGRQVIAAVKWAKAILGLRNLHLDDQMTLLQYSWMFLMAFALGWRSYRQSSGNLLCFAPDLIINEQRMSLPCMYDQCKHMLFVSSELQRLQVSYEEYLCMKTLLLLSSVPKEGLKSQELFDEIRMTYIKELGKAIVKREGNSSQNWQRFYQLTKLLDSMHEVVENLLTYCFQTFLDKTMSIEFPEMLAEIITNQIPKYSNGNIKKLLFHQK
Description: Glucocorticoid receptor of the rat thymus
Male Sprague-Dawley EOPS rats, weighing 160 to 200 g are suprerenalectomized. 4 to 8 days after this ablation, the animals are killed, and the thymus is removed and homogenized at 0° C. in a buffer, Tris 10 mM, saccharose 0.25M, dithiothreitol 2 mM, HCl pH 7.4, using a Potter polytetrafluoroethylene-glass (1 g of tissue for 10 ml of TS). The homogenate is then ultra-centrifuged (105,000 g×90 min.) at 0° C. Aliquots of the supernatant so obtained are incubated at 0° C. for a time (t) with a constant concentration (T) of tritiated dexamethasone in the presence of increasing concentrations (0-2,500.10^-9 M) either of cold dexamethasone, or of the cold product under test. The concentration of bonded tritiated dexamethasone (B) is then measured in each incubate by the technique of adsorption on carbon dextran.
as §1, §2, §3, §4, §5

[4] = system: thymocytes of suprarenalectomized rats; conditions: general statement on glucocorticoids, in particular dexamethasone; cited from earlier work

SMILES	Relative bonding affinity (RBA), Progestogen, 2 H [1]	Relative bonding affinity (RBA), Progestogen, 24 H [1]	inhibition at 1 µM [2]	inhibition at 0.1 µM [2]	inhibition at 0.01 µM [2]	Relative bonding affinity (RBA), Glucocorticoid, 4 H [3]	Relative bonding affinity (RBA), Glucocorticoid, 24 H [3]	affinity for the progestogen receptor (in words) ([1]; conclusion from RBA)	affinity for the glucocorticoid receptor (in words) ([3]; conclusion from RBA)	incorporation of tritiated uridine (in words) [4]
CN(C)c1ccc(C2CC3(C)C(CCC34CCCO4)C3CCC4=CC(=O)CCC4=C23)cc1 (stereo not shown) [Example 1]	62	307	125%	51%	11%	118	48	–	–	–
CN(C)c1ccc(C2CC3(C)C(CCC34C=CCO4)C3CCC4=CC(=O)CCC4=C23)cc1 (stereo not drawn) [Example 2, (17 R) 11-beta-[4-(dimethylamino)phenyl]-spiro (estra-4,9-dien-17,27-(5H)-furan)-3-one]	23	222	32%	18%	0%	142	96	–	–	–
CSc1ccc(C2CC3(C)C(CCC34C=CCO4)C3CCC4=CC(=O)CCC4=C23)cc1 [Example 3, (17R) 11-beta-[4-(methylthio)phenyl]-spiro(estra-4,9-dien-17,2'-(5H)-furan)-3-one]	35	242	84%	12%	0%	56	41	–	–	–
CSc1ccc(C2CC3(C)C(CCC34CCCO4)C3CCC4=CC(=O)CCC4=C23)cc1 [Example 4, (17R) 4',5'-dihydro-11-beta-[4-(methylthio)phenyl]-spiro(estra-4,9-dien-17,2'-(3H)-furan)-3-one]	78	388	80%	21%	0%	69	39	very marked affinity	very marked affinity	–
C[C@@H]1C[C@H]2[C@@H]3CCC4=CC(=O)C=C[C@]4(C)[C@@]3(F)[C@@H](O)C[C@]2(C)[C@@]1(O)C(=O)CO [dexamethasone]	–	–	–	–	–	–	–	–	–	reduction in the incorporation of tritiated uridine
